Laboratory results as given in patent publication US8513233B2, “Pyrimidinyl-propionic acid derivatives and their use as PPAR agonists” (Shanghai Institute of Materia Medica, CAS, priority 2007, dated 2013).
Like-named read-outs stand apart in the source and are kept apart here. Values belong to the compound of their own block, whether it stands above or below them.

Legend:
HepG2 = assay: Growth inhibition, modified MTT assay, HepG2; assay type: cell-based; conditions: Homo sapiens, mean of 3 independent tests
Method: (§1) The growth inhibition was evaluated by the modified MTT assay. Briefly, the cells were seeded at 1×10^4 cells/well in 96-well plates (Falcon, Calif., USA), and incubated for 24 h in […] culture media with 10% FCS. The media were then replaced by serum-free medium. After 24 h, the media were placed in triplicate with grade concentrations of compounds. As controls, the cells were cultivated in DMEM/F12 only. The cells were then treated by MTT (Sigma, USA) assay, […] (5 g/L) for 4 h. After the removal of the supernatant, the purple-blue sediment was dissolved in 100 μL/well DMSO, and the optical densities were read on the multi-well scanning spectrophotometer (Labsystems Dragon, Finland) at 492 nm (A492). The growth inhibition rate (GIR) of the treated cells was calculated using Equation: GIR(%)={1−[A490/A490(control)]}×100% The results were also converted to IC50 (the compound concentration required for 50% growth inhibition of tumor cells), which were calculated by using the sigmoidal fitting model by the Origin 7.0 software (OriginLab, Northampton, Mass., USA). The mean IC50 was determined from the results of 3 independent tests.

SPC-A1 = assay: Growth inhibition, modified MTT assay, SPC-A1; assay type: cell-based; conditions: SPCA1, mean of 3 independent tests
Method: as §1

T24 = assay: Growth inhibition, modified MTT assay, T24; assay type: cell-based; conditions: Homo sapiens, T-24, mean of 3 independent tests
Method: as §1

MCF-7 = assay: Growth inhibition, modified MTT assay, MCF-7; assay type: cell-based; conditions: Homo sapiens, MCF7; MCF-7, MTT, mean of 3 independent tests
Method: as §1

PPAR-γ = target: T1, PPAR-γ (Homo sapiens, UniProt P37231); assay: Transient transfection and transcription assay (luciferase reporter, U2OS cells); assay type: cell-based; conditions: 24 h treatment
T1 construct: expressed in transfected cells; host or cells: U2OS cells, transiently transfected with pcDNA3.1 expression vectors (FuGene6)
T1 sequence (P37231 1-505): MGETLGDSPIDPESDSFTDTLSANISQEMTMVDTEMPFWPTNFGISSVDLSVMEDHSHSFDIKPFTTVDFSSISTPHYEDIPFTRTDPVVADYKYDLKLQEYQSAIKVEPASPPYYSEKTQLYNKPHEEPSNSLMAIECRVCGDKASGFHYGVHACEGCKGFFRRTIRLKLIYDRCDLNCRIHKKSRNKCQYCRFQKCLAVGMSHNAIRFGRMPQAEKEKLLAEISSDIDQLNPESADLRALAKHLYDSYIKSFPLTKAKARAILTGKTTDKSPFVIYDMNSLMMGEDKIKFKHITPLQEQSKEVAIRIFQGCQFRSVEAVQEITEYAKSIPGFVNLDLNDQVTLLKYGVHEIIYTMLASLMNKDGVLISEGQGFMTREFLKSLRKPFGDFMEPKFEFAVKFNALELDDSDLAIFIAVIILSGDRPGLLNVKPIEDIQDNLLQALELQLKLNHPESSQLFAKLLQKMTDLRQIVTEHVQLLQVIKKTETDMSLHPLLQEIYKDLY
T1 sequence (P19793 1-462 partner): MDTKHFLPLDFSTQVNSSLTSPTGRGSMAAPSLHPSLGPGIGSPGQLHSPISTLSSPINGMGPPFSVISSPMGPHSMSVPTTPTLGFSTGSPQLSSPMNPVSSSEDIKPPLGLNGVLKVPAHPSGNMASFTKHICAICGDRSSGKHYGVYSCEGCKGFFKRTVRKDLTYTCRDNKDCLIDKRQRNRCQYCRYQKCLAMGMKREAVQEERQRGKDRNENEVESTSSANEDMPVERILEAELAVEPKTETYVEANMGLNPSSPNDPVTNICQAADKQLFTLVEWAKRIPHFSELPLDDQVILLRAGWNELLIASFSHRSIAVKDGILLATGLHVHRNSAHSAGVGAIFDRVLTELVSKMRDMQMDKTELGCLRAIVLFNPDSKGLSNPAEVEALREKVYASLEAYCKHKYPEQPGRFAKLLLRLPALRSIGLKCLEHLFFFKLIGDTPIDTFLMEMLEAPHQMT
Method: cDNAs for Human RXR, PPAR were obtained by RTPCR from the human liver or adipose tissues. Amplified cDNAs were cloned into pcDNA3.1 expression vector and the inserts were confirmed by sequencing. U2OS cells were cultured in McCoy's 5A with 10% heat-inactivated fetal bovine serum in a humidified 5% CO2 atmosphere at 37° C. Cells were seeded in 96-well plates the day before transfection to give a confluence of 50-80% at transfection. A total of 60 ng of DNA containing 10 ng of hRXR, 10 ng of pCMV Gal, 10 ng of nuclear receptor expression vectors and 30 ng of the corresponding reporters were cotransfected per well using FuGene6 transfection reagent according to the manufacturer's instructions. […] The final concentration of DMSO in culture medium was 0.1%. […] Luciferase activity was monitored using the luciferase assay kit according to the manufacturers instructions. Light emission was read in a Labsystems Ascent Fluoroskan reader. To measure galactosidase activity to normalize the luciferase data, 50 IL of supernatant from each transfection lysate was transferred to a new microplate. Galactosidase assays were performed in the microwell plates using a kit from Promega and read in a microplate reader. Compounds were tested in five concentrations ranging from 0.01 to 10 μM. […] The results were expressed as means (SD).

[1] = system: Han:SPRD rat model of ADPKD; assay type: in vivo; conditions: for 24-hour urine protein level / Blood urea nitrogen (BUN) levels: Treatment Group 10 mg/kg.d
Text: Han: SPRD rats were obtained from our own breeding colony that is derived from animals that were kindly provided to us by Mayo Clinic (Rochester Minn.), All animal procedures and care were taken at the SPF-level Laboratory Animal Center of the Second Military Medical University (Shanghai, […].). Carboxymethyl cellulose sodium (CMC-Na) was purchased from Shanghai Chemical Reagent Company. Automatic clinical chemistry analyzer (Hitachi Clinical Analyzer 7080).
2.1 Experimental protocol: A total of 48 Han:SPRD rats (about ⅔ rats were Cy/+, ⅓ were +/+, homozygote rats −/− die within 3 weeks), all at 3 weeks of age, were randomized into 2 groups: negative control group and treatment groups (10 mg/kg.d compound 2). The rats of negative control group were given 1% CMC-Na, while the rats of treatment group were given 10 mg/kg.d compound 2 (suspended in 1% CMC-Na) by daily gavage from 3 weeks through 11 weeks of age, removal +/+ rats in both groups, then general animal feeds were given to rats in control group, the rats of treatment group were given animal feeds added by 0.03% of compound 2 (approximately 10 mg/kg. d), both groups were maintained with free access to water. Long-term observation of the rats until they died, record the length of their life span. 2.2 Physiological and biochemical indexes: since the day of treatment, general state and body weight of rats were examined and recorded every month, Blood (2 ml) was obtained from the rat orbital venous plexus using a glass capillary tube, then centrifuged for 10 minutes at 4000 rpm to collect serum for biochemical analysis including blood urea nitrogen (BUN), ALT, AST, serum lipids et. Urine was collected using Metabolic Cage for 24-hour urine protein analysis. 3.

[2] = after 2 months of treatment, P<0.001

- IC50 (HepG2): > 50 µM
- IC50 (T24): > 50 µM
- IC50 (MCF-7): > 50 µM
- melting point: 107 to 109 °C
Compound: CC(Cc1ccc(Oc2cc(N3CCN(Cc4ccc(F)cc4)CC3)nc(N)n2)cc1)(Oc1ccccc1)C(=O)O (centres unmarked) [Compound 7, 3-{4-{2-Amino-6-[4-(4-fluoro-benzyl)-piperazin-1-yl]-pyrimidin-4-yloxy}-phenyl}-2-methyl-2-phenoxy-propionic acid]
- IC50 (SPC-A1): > 50 µM

- IC50 (HepG2): > 50 µM
- IC50 (T24): 45.6 µM
- IC50 (MCF-7): 48.9 µM
- melting point: 103 to 105 °C
Compound: CC(Cc1ccc(Oc2cc(N3CCN(Cc4ccc(Cl)cc4)CC3)nc(N)n2)cc1)(Oc1ccccc1)C(=O)O (centres unmarked) [Compound 13, 3-{4-{2-Amino-6-[4-(4-chloro-benzyl)-piperazin-1-yl]-pyrimidin-4-yloxy}-phenyl}-2-methyl-2-phenoxy-propionic acid]
- IC50 (SPC-A1): > 50 µM

- IC50 (HepG2): > 50 µM
- IC50 (T24): 36.2 µM
- IC50 (MCF-7): 28.5 µM
- melting point: 114 to 115 °C
Compound: CC(Cc1ccc(Oc2cc(N3CCN(Cc4ccc(C(F)(F)F)cc4)CC3)nc(N)n2)cc1)(Oc1ccccc1)C(=O)O (centres unmarked) [Compound 8, 3-{4-{2-Amino-6-[4-(4-trifluoromethyl-benzyl)-piperazin-1-yl]-pyrimidin-4-yloxy}-phenyl}-2-methyl-2-phenoxy-propionic acid]
- IC50 (SPC-A1): 42.5 µM

- IC50 (HepG2): 26.5 µM
- EC50 (PPAR-γ): 6.03 µM
- IC50 (T24): 12.5 µM
- IC50 (MCF-7): 7.9 µM
Compound: CC(Cc1ccc(Oc2cc(N3CCN(Cc4ccc(C(C)(C)C)cc4)CC3)nc(N)n2)cc1)(Oc1ccccc1)C(=O)O (centres unmarked) [Compound 14, 3-{4-{2-Amino-6-[4-(4-tert-butyl-benzyl)-piperazin-1-yl]-pyrimidin-4-yloxy}-phenyl}-2-methyl-2-phenoxy-propionic acid]
- IC50 (SPC-A1): 8.6 µM

- IC50 (HepG2): > 50 µM
- EC50 (PPAR-γ): 3.89 µM
- IC50 (T24): 40.6 µM
- IC50 (MCF-7): 47.6 µM
Compound: CC(Cc1ccc(Oc2cc(N3CCN(Cc4ccco4)CC3)nc(N)n2)cc1)(Oc1ccccc1)C(=O)O (centres unmarked) [Compound 37, 3-{4-[2-Amino-6-(4-furan-2-ylmethyl-piperazin-1-yl)-pyrimidin-4-yloxy]phenyl}-2-methyl-2-phenoxy-propionic acid]
- IC50 (SPC-A1): 37.6 µM

- IC50 (HepG2): > 50 µM
- EC50 (PPAR-γ): 4.17 µM
- IC50 (T24): > 50 µM
- IC50 (MCF-7): 38 µM
Compound: Cc1cccc(CN2CCN(c3cc(Oc4ccc(CC(C)(Oc5ccccc5)C(=O)O)cc4)nc(N)n3)CC2)c1 (centres unmarked) [Compound 9, 3-{4-{2-Amino-6-[4-(3-methyl-benzyl)-piperazin-1-yl]-pyrimidin-4-yloxy}-phenyl}-2-methyl-2-phenoxy-propionic acid]
- IC50 (SPC-A1): 48.9 µM

- IC50 (HepG2): > 50 µM
- EC50 (PPAR-γ): 2.57 µM
- IC50 (T24): 40 µM
- IC50 (MCF-7): > 50 µM
Compound: CC(Cc1ccc(Oc2cc(N3CCN(Cc4ccccc4)CC3)nc(N)n2)cc1)(Oc1ccc(-c2ccccc2)cc1)C(=O)O (centres unmarked) [Compound 29, 3-{4-[2-Amino-6-(4-benzyl-piperazin-1-yl)-pyrimidin-4-yloxy]-phenyl}-2-(biphenyl-4-yloxy)-2-methyl-propionic acid]
- IC50 (SPC-A1): 34.1 µM

Compound: CC(Cc1ccc(Oc2cc(N3CCN(Cc4ccccc4)CC3)nc(N)n2)cc1)(Oc1ccccc1)C(=O)O (racemic) [Compound 2, rac-3-{4-[2-Amino-6-(4-benzyl-piperazin-1-yl)-pyrimidin-4-yloxy]-phenyl}-2-methyl-2-phenoxy-propionic acid]
- IC50 (HepG2): 80.6 µM
- IC50 (SPC-A1): 65.5 µM
- EC50 (PPAR-γ): 6.76 µM
- IC50 (T24): 72 µM
- IC50 (MCF-7): 55 µM
- 24-hour urine protein level ([1]; 1 month): 62.3 ± 6.3 mg/24 h
- Blood urea nitrogen (BUN) levels ([1]; 1 month): 11.55 ± 0.57 mmol/L
- 24-hour urine protein level ([1]; 2 month): 64.1 ± 5.0 mg/24 h
- Blood urea nitrogen (BUN) levels ([1]; 2 month): 12.36 ± 0.77 mmol/L
- 24-hour urine protein level ([1]; 3 month): 67.1 ± 4.9 mg/24 h
- Blood urea nitrogen (BUN) levels ([1]; 3 month): 12.58 ± 1.35 mmol/L
- 24-hour urine protein level ([1]; 4 month): 66.3 ± 4.6 mg/24 h
- Blood urea nitrogen (BUN) levels ([1]; 4 month): 12.79 ± 1.41 mmol/L
- 24-hour urine protein level ([1]; 5 month): 67.1 ± 3.6 mg/24 h
- Blood urea nitrogen (BUN) levels ([1]; 5 month): 13.10 ± 1.64 mmol/L
- 24-hour urine protein level ([1]; 6 month): 66.0 ± 8.6 mg/24 h
- Blood urea nitrogen (BUN) levels ([1]; 6 month): 13.26 ± 1.05 mmol/L
- 24-hour urine protein level ([1]; 7 month): 64.4 ± 2.8 mg/24 h
- Blood urea nitrogen (BUN) levels ([1]; 7 month): 12.60 ± 1.40 mmol/L
- 24-hour urine protein level ([1]; 8 month): 70.4 ± 8.8 mg/24 h
- Blood urea nitrogen (BUN) levels ([1]; 8 month): 13.16 ± 1.73 mmol/L
- 24-hour urine protein level ([1]; 9 month): 67.8 ± 3.2 mg/24 h
- Blood urea nitrogen (BUN) levels ([1]; 9 month): 12.87 ± 2.72 mmol/L
- 24-hour urine protein level ([1]; 10 month): 70.0 ± 5.9 mg/24 h
- Blood urea nitrogen (BUN) levels ([1]; 10 month): 13.17 ± 3.70 mmol/L
- 24-hour urine protein level ([1]; baseline): Non-detected
- Blood urea nitrogen (BUN) levels ([1]; baseline): 4.97 ± 0.67 mmol/L
- average 24-hour urine protein level compared with the negative control group [1, 2]: lower
- average BUN level compared with control group [1, 2]: lower
- life span of Han:SPRD rats ([1]; at suitable dose, FIG. 1): prolong the life span
- change in body weight ([1]; rat, in vivo): no statistically significant change
- poisonous and side effects ([1]; rat, in vivo): without any obvious poisonous and side effects
- serum ALT ([1]; rat, in vivo): within the normal range
- serum AST ([1]; rat, in vivo): within the normal range
- serum lipids ([1]; rat, in vivo): within the normal range
- average survival time ([1]; treatment group, long-term, 2 rats still alive): ≥ 451.1 days
